The record followed here is patent US7776847B2, “Benzisothiazoles useful for treating or preventing HCV infection” (priority 2005, dated 2010).

Broadly, the IC50 is the point on the concentration scale where inhibition reaches its midpoint.

The test system of this test is HCV replicon. The experiment in a line: HCV replicon luciferase reporter assay. Type of test: cell-based. As to conditions: Hepatitis C virus, Table 5; read-out: IC50. The procedure, abridged: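 Replicon-bearing dividing cells seeded at 5,000–7,500 cells/well, grown 24 h at 37° C/5% CO2, then exposed to test compound at various concentrations for a further 24–48 h. Replication/translation read by luciferase reporter; IC50 taken as compound amount giving 50% reduction in luciferase activity.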
For orientation: In antiviral work, replicon cells carry a viral genome segment that copies itself.
Turning to `Cc1ccc(OC(C)C)c(-c2ccc(C(=O)NCCNc3nsc4ccccc34)cc2)c1` [Compound 363, N-(2-(benzo[d]isothiazol-3-ylamino)ethyl)-2′-isopropoxy-5′-methylbiphenyl-4-carboxamide], the IC50 is less than 5 µM.
Next, `COc1cccc(-c2ccc(C(=O)NCCNc3nsc4ccccc34)cc2)c1OC` [Compound 364, N-(2-(benzo[d]isothiazol-3-ylamino)ethyl)-2′,3′-dimethoxybiphenyl-4-carboxamide]: less than 5 µM; `COc1ccc(C)cc1-c1ccc(C(=O)NCCNc2nsc3ccccc23)cc1` [Compound 365, N-(2-(benzo[d]isothiazol-3-ylamino)ethyl)-2′-methoxy-5′-methylbiphenyl-4-carboxamide]: less than 5 µM; `COc1ccc(-c2ccc(C(=O)NCCNc3nsc4ccccc34)cc2)c(C)c1` [Compound 366, N-(2-(benzo[d]isothiazol-3-ylamino)ethyl)-4′-methoxy-2′-methylbiphenyl-4-carboxamide]: less than 5 µM.
Next, `CCCOc1ccc(F)cc1-c1ccc(C(=O)NCCNc2nsc3ccccc23)cc1` [Compound 367, N-(2-(benzo[d]isothiazol-3-ylamino)ethyl)-5′-fluoro-2′-propoxybiphenyl-4-carboxamide]: less than 5 µM.
Consider `COc1cc(F)ccc1-c1cccc(C(=O)NCCCNc2nsc3ccccc23)c1` [Compound 368, N-(3-(benzo[d]isothiazol-3-ylamino)propyl)-4′-fluoro-6′-methoxybiphenyl-3-carboxamide], for which the IC50 is less than 5 µM.
The figure for `COc1cccc(-c2cccc(C(=O)NCCCNc3nsc4ccccc34)c2)c1OC` [Compound 369, N-(3-(benzo[d]isothiazol-3-ylamino)propyl)-5′,6′-dimethoxybiphenyl-3-carboxamide] is less than 5 µM; for `COc1ccc(-c2cccc(C(=O)NCCNc3nsc4ccccc34)c2)cc1OC` [Compound 370, N-(2-(benzo[d]isothiazol-3-ylamino)ethyl)-3′,4′-dimethoxybiphenyl-3-carboxamide] it is less than 5 µM; for `COc1ccc(-c2cccc(C(=O)NCCNc3nsc4ccccc34)c2)cc1` [Compound 371, N-(2-(benzo[d]isothiazol-3-ylamino)ethyl)-4′-methoxybiphenyl-3-carboxamide] it is less than 5 µM.
Next, `Cc1ccc(-c2cccc(C(=O)NCCNc3nsc4ccccc34)c2)cc1C` [Compound 372, N-(2-(benzo[d]isothiazol-3-ylamino)ethyl)-3′,4′-dimethylbiphenyl-3-carboxamide]: less than 5 µM; `O=C(NCCNc1nsc2ccccc12)c1cccc(-c2ccc3ccccc3c2)c1` [Compound 373, N-(2-(benzo[d]isothiazol-3-ylamino)ethyl)-3-(naphthalen-2-yl)benzamide]: less than 5 µM.
Next, `O=C(NCCNc1nsc2ccccc12)c1cccc(-c2cccc3cccnc23)c1` [Compound 374, N-(2-(benzo[d]isothiazol-3-ylamino)ethyl)-3-(quinolin-8-yl)benzamide]: less than 5 µM.
With `O=C(NCCNc1nsc2ccccc12)c1cccc(-c2cnc3ccccc3c2)c1` [Compound 375, N-(2-(benzo[d]isothiazol-3-ylamino)ethyl)-3-(quinolin-3-yl)benzamide], the IC50 was less than 5 µM.
The figure for `CC(C)Oc1ccccc1-c1cccc(C(=O)NCCCNc2nsc3ccccc23)c1` [Compound 376, N-(3-(benzo[d]isothiazol-3-ylamino)propyl)-6′-isopropoxybiphenyl-3-carboxamide] is less than 5 µM; for `CC(C)Oc1ccccc1-c1ccc(C(=O)NCCNc2nsc3ccccc23)cc1` [Compound 377, N-(2-(benzo[d]isothiazol-3-ylamino)ethyl)-2′-isopropoxybiphenyl-4-carboxamide] it is less than 5 µM; for `COc1ccc(-c2cccc(C(=O)NCCCNc3nsc4ccccc34)c2)cc1` [Compound 378, N-(3-(benzo[d]isothiazol-3-ylamino)propyl)-4′-methoxybiphenyl-3-carboxamide] it is less than 5 µM.
Next, `CCCCc1ccc(NC(=O)NCCCNc2nsc3ccccc23)cc1` [Compound 379, 1-(3-(benzo[d]isothiazol-3-ylamino)propyl)-3-(4-butylphenyl)urea]: less than 5 µM; `O=C(NCCCNc1nsc2ccccc12)c1cccc(-c2ccc(Cl)nc2)c1` [Compound 380, N-(3-(benzo[d]isothiazol-3-ylamino)propyl)-3-(6-chloropyridin-3-yl)benzamide]: less than 5 µM; `CCOc1ccc(C)c(-c2cccc(C(=O)NCCCNc3nsc4ccccc34)c2)c1` [Compound 381, N-(3-(benzo[d]isothiazol-3-ylamino)propyl)-3′-ethoxy-6′-methylbiphenyl-3-carboxamide]: less than 5 µM.
Next, `COc1ccc(OC)c(-c2cccc(C(=O)NCCCNc3nsc4ccccc34)c2)c1` [Compound 382, N-(3-(benzo[d]isothiazol-3-ylamino)propyl)-3′,6′-dimethoxybiphenyl-3-carboxamide]: less than 5 µM; `CCCOc1cc(F)ccc1-c1cccc(C(=O)NCCCNc2nsc3ccccc23)c1` [Compound 383, N-(3-(benzo[d]isothiazol-3-ylamino)propyl)-4′-fluoro-6′-propoxybiphenyl-3-carboxaimde]: less than 5 µM; `COc1ccccc1-c1cccc(C(=O)NCCCNc2nsc3ccccc23)c1` [Compound 384, N-(3-(benzo[d]isothiazol-3-ylamino)propyl)-6′-methoxybiphenyl-3-carboxamide]: less than 5 µM.
As for `O=C(NCCNc1nsc2ccccc12)c1ccc(-c2ccccc2O)cc1` [Compound 385, N-(2-(benzo[d]isothiazol-3-ylamino)ethyl)-2′-hydroxybiphenyl-4-carboxamide], the IC50 is less than 5 µM.
The figure for `O=C(NCCCNc1nsc2ccccc12)c1cccc(I)c1` [Compound 386, N-(3-(benzo[d]isothiazol-3-ylamino)propyl)-3-iodobenzamide] is less than 5 µM.
`O=C(NCCCNc1nsc2ccccc12)Nc1ccc(I)cc1` [Compound 387, 1-(3-(benzo[d]isothiazol-3-ylamino)propyl)-3-(4-iodophenyl)urea]: the concentration for half-maximal inhibition (IC50) was less than 5 µM.
Next, `COc1ccc(-c2cccc(C(=O)NCCCNc3nsc4ccccc34)c2)cn1` [Compound 388, N-(3-(benzo[d]isothiazol-3-ylamino)propyl)-3-(6-methoxypyridin-3-yl)benzamide]: less than 5 µM; `CC(C)(C)OC(=O)N1CC=C(c2cccc(C(=O)NCCCNc3nsc4ccccc34)c2)CC1` [Compound 390, tert-butyl 4-(3-(3-(benzo[d]isothiazol-3-ylamino)propylcarbamoyl)phenyl)-5,6-dihydropyridine-1(2H)-carboxylate]: less than 5 µM.
Next, `CCOc1cc(OCC)cc(C(=O)NCCCNc2nsc3ccccc23)c1` [Compound 391, N-(3-(benzo[d]isothiazol-3-ylamino)propyl)-3,5-diethoxybenzamide]: less than 5 µM.
The figure for `Cc1ccc(OC(C)C)c(-c2ccc(NC(=O)NCCCNc3nsc4ccccc34)cc2)c1` [Compound 392, 1-(3-(benzo[d]isothiazol-3-ylamino)propyl)-3-(2′-isopropoxy-5′-methylbiphenyl-4-yl)urea] is less than 5 µM.
Turning to `COc1cc(F)ccc1-c1ccc(NC(=O)NCCCNc2nsc3ccccc23)cc1` [Compound 393, 1-(3-(benzo[d]isothiazol-3-ylamino)propyl)-3-(4′-fluoro-2′-methoxybiphenyl-4-yl)urea], the IC50 is less than 5 µM.
Next, `O=C(NCCCNc1nsc2ccccc12)c1cccc(C2=CCNCC2)c1` [Compound 394, N-(3-(benzo[d]isothiazol-3-ylamino)propyl)-3-(1,2,3,6-tetrahydropyridin-4-yl)benzamide]: less than 5 µM; `COc1ccccc1-c1ccc(NC(=O)NCCCNc2nsc3ccccc23)cc1` [Compound 395, 1-(3-(benzo[d]isothiazol-3-ylamino)propyl)-3-(2′-methoxybiphenyl-4-yl)urea]: less than 5 µM.
The figure for `O=C(NCCCNc1nsc2ccccc12)c1ccc(O)c(Br)c1` [Compound 396, N-(3-(benzo[d]isothiazol-3-ylamino)propyl)-3-bromo-4-hydroxybenzamide] is less than 5 µM.
The figure for `O=C(NCCCNc1nsc2ccccc12)c1ccc(OCCN2CCOCC2)c(Br)c1` [Compound 397, N-(3-(benzo[d]isothiazol-3-ylamino)propyl)-3-bromo-4-(2-morpholinoethoxy)benzamide] is less than 5 µM; for `COc1ccc(-c2ccc(C(=O)NCCCNc3nsc4cccc(S(=O)(=O)NC(C)(C)C)c34)cc2)cc1` [Compound 398, N-(3-(4-(N-tert-butylsulfamoyl)benzo[d]isothiazol-3-ylamino)propyl)-4′-methoxybiphenyl-4-carboxamide] it is greater than 5 µM.
Consider `COc1ccc(-c2ccc(C(=O)NCCCNc3nsc4cc(S(=O)(=O)NC(C)(C)C)ccc34)cc2)cc1` [Compound 399, N-(3-(6-(N-tert-butylsulfamoyl)benzo[d]isothiazol-3-ylamino)propyl)-4′-methoxybiphenyl-4-carboxamide], for which the IC50 was greater than 5 µM.
Regarding `COc1ccc(-c2ccc(C(=O)NCCCNc3nsc4c(S(=O)(=O)C(C)(C)C)cccc34)cc2)cc1` [Compound 400, N-(3-(7-(tert-butylsulfonyl)benzo[d]isothiazol-3-ylamino)propyl)-4′-methoxybiphenyl-4-carboxamide], the IC50 was less than 5 µM.
Next, `COc1ccc(-c2ccc(C(=O)NCCCNc3nsc4cccc(S(N)(=O)=O)c34)cc2)cc1` [Compound 401, 4′-methoxy-N-(3-(4-sulfamoylbenzo[d]isothiazol-3-ylamino)propyl)biphenyl-4-carboxamide]: greater than 5 µM; `COc1ccc(-c2ccc(C(=O)NCCCNc3nsc4cc(S(N)(=O)=O)ccc34)cc2)cc1` [Compound 402, 4′-methoxy-N-(3-(6-sulfamoylbenzo[d]isothiazol-3-ylamino)propyl)biphenyl-4-carboxamide]: less than 5 µM.
